# Read-outs that look alike come from different tables or passages of the source.
# Legend:
# [1] = Visual cytotoxicity in stationary HFF cells at time of plaque enumeration; format: cell-based, human; details: human, stationary human foreskin fibroblasts (HFF cells); visual cytotoxicity on HFF cells at time of HCMV plaque enumeration; read-out: 50% Inhibitory Concentration, Cytotoxicity (HFF)
# Experimental: (§1) KB cells (available from the American Type Culture Collection (ATCC) 12301 Parklawn Drive, […], Md. 20852 (ATCC CCL 17)), an established human cell line derived from an epidermal oral carcinoma, were grown in minimal essential medium (MEM) (Sigma) with Hanks salts (MEM(H)) supplemented with 5% fetal calf serum. Human foreskin fibroblasts (HFF cells) (provided by the University of Michigan Hospital) and African green monkey kidney cells (BSC-1) (ATTC CCL 26) cells were grown in MEM with Earl salts (MEM(E)) supplemented with 10% fetal bovine serum. Cells were passaged according to conventional procedures and as described in Shipman, C., Jr. et al. (1976) Antimicrob. Agents Chemother. Vol. 9:120 and incorporated herein by reference. Briefly, cells were passaged at 1:2 to 1:10 dilutions according to conventional procedures by using 0.05% trypsin plus 0.02% EDTA in a HEPES buffered salt solution. HFF cells were passaged only at 1:2 dilutions.
# (§2) Two different methods were used to evaluate cytotoxicity of the compounds. First, cytotoxicity produced in stationary HFF cells was determined by microscopical examination of cells not affected by the virus used in the plaque assay. Second the effect of compounds on KB cells during two population doubling times was determined by crystal violet staining and spectrophotometric quantitation of dye eluted from stained cells. This method has been utilized for the analysis of ganciclovir and zidovudine (See Prichard, M. N. et al. Antiviral Res. (1991) Vol. 35:1060-1065).
# (§3) (3) Visual cytotoxicity was scored on HFF cells at the time of HCMV plaque enumeration. Inhibition of KB cell growth was determined as described in the experimental. 3L was used as a positive control for the KB cytotoxicity assay.
# HCMV = HCMV plaque (focus) reduction assay in HFF cells; format: cell-based, HCMV (Towne strain); details: HCMV plaque assay, HFF cells, averages from two or more experiments, read-out: 50% Inhibitory Concentration, Antiviral Activity (plaque)
# Experimental: (§4) A plaque purified isolate, Po, of the Towne strain of HCMV was used in all experiments and was a gift of Dr. Mark Stinski, University of Iowa. The KOS strain of HSV-1 was used and was provided by Dr. Sandra K. Weller, University of Connecticut. Stock preparations of HCMV and HSV-1 were prepared and titered as known to those of skill and the art and described in Turk, S. R. et al. (1987) Antimicrob. Agents Chemother. Vol. 31:544-550 and Shipman, C., Jr., et al. (1990) J. Virol. Methods Vol. 28:101-106, each incorporated herein by reference.
# (§5) HCMV plaque reduction experiments were performed with monolayer cultures of HFF cells by a procedure similar to that referenced above for titration of the viruses and described in Devivar, R. V. et al. (1994) J. Med. Chem. Vol. 37:2942-2949. Activity of compounds against HSV-1 was evaluated using an ELISA assay.
# The effect of compounds of the replication of HCMV was measured using a plaque (focus) reduction assay. For the former, HFF cells in 24-well culture dishes were infected with approximately 50 p.f.u. of HCMV per well using the procedures detailed above. Compounds dissolved in growth medium were added in four to six selected concentrations to duplicate wells following virus adsorption. Following incubation at 37° C. for 7 to 10 days, cell sheets were fixed, stained and microscopic plaques were enumerated as described above. Drug effects were calculated as a percentage of reduction in number of plaques in the presence of each drug concentration compared to the number observed in the absence of drug. DHPG (ganciclovir) was used as a positive control in all experiments.
# (§6) Dose-response relationships can be used to compare drug effects. These are constructed by linearly regressing the percent inhibition of parameters derived in the preceding sections against log drug concentrations. The 50 inhibitory (I50) concentrations were calculated from the regression lines using the methods described by Goldstein. See Goldstein, A., Biostatistics: An Introductory Text, MacMillan, New York, pp. 156-161 (1964), incorporated herein by reference.
# (§7) (2) A plaque assay was used to quantitate anti HCMV activity, an ELISA assay was used to quantitate activity against HSV-1. DHPG (ganciclovir) was used as a positive control for the HCMV assay.
# HSV-1 = HSV-1 ELISA assay; format: cell-based, HSV-1 (KOS strain); details: read-out: 50% Inhibitory Concentration, Antiviral Activity (ELISA)
# Experimental: as §4, §5
# ELISA techniques according to standard procedures were also used to determine activity against HSV-1. Drug effects were calculated as a percentage of the reduction in virus titers in the presence of each drug concentration compared to the titer obtained in the absence of drug. Ganciclovir was used as a positive control in all experiments.
# as §6, §7
# [2] = Inhibition of KB cell growth (crystal violet staining); format: cell-based, human; details: human, KB cells (human epidermal oral carcinoma line); inhibition of KB cell growth; read-out: 50% Inhibitory Concentration, Cytotoxicity (KB)
# Experimental: as §1, §2, §3
# HFF cells = test: Visual cytotoxicity in stationary HFF cells at time of plaque enumeration; format: cell-based, human; details: visual cytotoxicity on HFF cells at time of HCMV plaque enumeration; read-out: 50% Inhibitory Concentration, Cytotoxicity (HFF)
# Experimental: as §1, §2, §3
# KB cells = test: Inhibition of KB cell growth (crystal violet staining); format: cell-based, human; details: for IC50: inhibition of KB cell growth, read-out: 50% Inhibitory Concentration, Cytotoxicity (KB)
# Experimental: as §1, §2, §3
# L1210 cells = test: Antiproliferative activity: growth of L1210 cells; format: cell-based, mouse; details: for IC50: concentration required to decrease final growth rate of L1210 cells to half of control rate, read-out: 50% Inhibitory Concentration, Antiproliferative Activity
# Experimental: Antiproliferative activity was evaluated by measuring the effect of the compounds on the growth of L1210 cells, a mouse leukemia cell line which is generally available and can be obtained from Cancer Chemotherapy Center, Japanese Foundation for Cancer Research. Antiproliferative activity was measured using conventional procedures and as described in Wotring, L. L. and Townsend, L. B., (1979) Cancer Res. Vol. 39:3018-3023 and Cory, A. H. et al. (1991) Cancer Comm. Vol. 3:207-212, each incorporated herein by reference.
# (8) The concentration required to decrease the final growth rate of L1210 cells to half of the control rate. All values are averages from two or more experiments.
# [3] = Human alphaherpesvirus 1, averages from two or more experiments
# [4] = averages from two or more experiments
"IC50 (HCMV; Human betaherpesvirus 5, HFF) [µM]",IC50 (HSV-1; [3]) [µM],SMILES,IC50 [1] [µM],IC50 at 2 population doubling times [2] [µM],IC50 (HFF cells) [µM],IC50 (HCMV) [µM],IC50 (HSV-1; [4]) [µM],cytotoxicity in growing KB cells (in words) (KB cells),IC50 (KB cells) [µM],IC50 (L1210 cells) [µM],antiproliferative effect in L1210 cells (in words) (L1210 cells; statement in text on Table 2)
2.76,> 100,"OC[C@H]1O[C@@H](n2c(Cl)nc3cc(Cl)c(Cl)cc32)[C@H](O)[C@@H]1O [Compound 1, 2,5,6-trichloro-1-(β-D-ribofuranosyl)benzimidazole, reference compound]",238,210,,,,,,,
,,"CC(=O)O[C@@H]1[C@H](OC(C)=O)[C@@H](CF)O[C@H]1n1c(Cl)nc2cc(Cl)c(Cl)cc21 [Compound 12a, 2,5,6-trichloro-1-(2′,3′-di-O-acetyl-5′-deoxy-5′-fluoro-β-D-ribofuranosyl)benzimidazole]",,,32,0.6,> 100,little or no cytoxicity,100,,
,,"CC(=O)O[C@@H]1[C@H](OC(C)=O)[C@@H](CCl)O[C@H]1n1c(Cl)nc2cc(Cl)c(Cl)cc21 [Compound 12b, 2,5,6-trichloro-1-(2′,3′-di-O-acetyl-5′-deoxy-5′-chloro-β-D-ribofuranosyl)benzimidazole]",,,32,1.4,> 100,,90,,
,,"CC(=O)O[C@@H]1[C@H](OC(C)=O)[C@@H](CBr)O[C@H]1n1c(Cl)nc2cc(Cl)c(Cl)cc21 [Compound 12c, 2,5,6-trichloro-1-(2′,3′-di-O-acetyl-5′-deoxy-5′-bromo-β-D-ribofuranosyl)benzimidazole]",,,32,2.7,> 100,,60,,
,,"CC(=O)O[C@@H]1[C@H](OC(C)=O)[C@@H](CI)O[C@H]1n1c(Cl)nc2cc(Cl)c(Cl)cc21 [Compound 12d, 2,5,6-trichloro-1-(2′,3′-di-O-acetyl-5′-deoxy-5′-iodo-β-D-ribofuranosyl)benzimidazole]",,,32,2.5,> 100,,60,,
,,"O[C@@H]1[C@H](O)[C@@H](CF)O[C@H]1n1c(Cl)nc2cc(Cl)c(Cl)cc21 [Compound 13a, 2,5,6-trichloro-1-(5′-deoxy-5′-fluoro-β-D-ribofuranosyl)benzimidazole]",,,32,0.5,> 100,little or no cytoxicity,> 100,> 100,no antiproliferative effect
,,"O[C@@H]1[C@H](O)[C@@H](CCl)O[C@H]1n1c(Cl)nc2cc(Cl)c(Cl)cc21 [Compound 13b, 2,5,6-trichloro-1-(5′-deoxy-5′-chloro-β-D-ribofuranosyl)benzimidazole]",,,32,1,> 100,,90,> 100,
,,"O[C@@H]1[C@H](O)[C@@H](CBr)O[C@H]1n1c(Cl)nc2cc(Cl)c(Cl)cc21 [Compound 13c, 2,5,6-trichloro-1-(5′-deoxy-5′-bromo-β-D-ribofuranosyl)benzimidazole]",,,32,1.5,> 100,,90,,
,,"O[C@@H]1[C@H](O)[C@@H](CI)O[C@H]1n1c(Cl)nc2cc(Cl)c(Cl)cc21 [Compound 13d, 2,5,6-trichloro-1-(5′-deoxy-5′-iodo-β-D-ribofuranosyl)benzimidazole]",,,32,3.2,,,,,
,,"CC(=O)O[C@@H]1[C@H](OC(C)=O)[C@@H](CN=[N+]=[N-])O[C@H]1n1c(Cl)nc2cc(Cl)c(Cl)cc21 [Compound 16a, 2,5,6-trichloro-1-(2′,3′-di-O-acetyl-5′-deoxy-5′-azido-β-D-ribofuranosyl)benzimidazole]",,,32,1.5,> 100,,70,,
,,"CSC[C@H]1O[C@@H](n2c(Cl)nc3cc(Cl)c(Cl)cc32)[C@H](OC(C)=O)[C@@H]1OC(C)=O [Compound 16b, 2,5,6-trichloro-1-(2′,3′-di-O-acetyl-5′-deoxy-5′-methylthio-β-D-ribofuranosyl) benzimidazole]",,,32,4.8,> 100,,> 100,,
,,"[N-]=[N+]=NC[C@H]1O[C@@H](n2c(Cl)nc3cc(Cl)c(Cl)cc32)[C@H](O)[C@@H]1O [Compound 17a, 2,5,6-trichloro-1-(5′-deoxy-5′-azido-β-D-ribofuranosyl)benzimidazole]",,,32,1.5,> 100,,70,80,
,,"CC1(C)O[C@@H]2[C@H](O1)[C@@H](CO)O[C@H]2n1c(Cl)nc2cc(Cl)c(Cl)cc21 [Compound 18, 2,5,6-Trichloro-1-(2′,3′-O-isopropylidene-β-D-ribofuranosyl)benzimidazole]",,,> 100,12.4,,,,,
,,"CC1(C)OC2C(CN=[N+]=[N-])OC(n3c(Cl)nc4cc(Cl)c(Cl)cc43)C2O1 [Compound 19a, 2,5,6-Trichloro-1-(2′,3′-O-isopropylidene-5′-deoxy-5′-azido-β-D-ribofuranosyl) benzimidazole]",,,32,10.9,,,,,
,,"CC1(C)O[C@@H]2[C@H](O1)[C@@H](CCl)O[C@H]2n1c(Cl)nc2cc(Cl)c(Cl)cc21 [Compound 19b, 2,5,6-Trichloro-1-(2′,3′-O-isopropylidene-5′-deoxy-5′-chloro-β-D-ribofuranosyl) benzimidazole]",,,66,13.5,> 100,,100,,
,3.5,"Nc1nc(O)c2ncn(COC(CO)CO)c2n1 [DHPG, ganciclovir, reference compound]",> 100,> 100,,,,,,,

# From patent US20010011075A1, “5'-SUBSTITUTED-RIBOFURANOSYL BENZIMIDAZOLES AS ANTIVIRAL AGENTS” (priority 1999, published 2001)
